Reference: PubChem BioAssay AID330 (DTP/NCI, 2004)
Where “and” joins values, the source holds several entries; their conditions need not be identical. Equal values may be shown once. Inconclusive results and toxic doses are left out.

Test system: P388 leukemia ip, CD2F1 mice, survival T/C
Experiment: NCI In Vivo Anticancer Drug Screen. Data for tumor model P388 Leukemia (intraperitoneal) in CD2F1 (CDF1) mice
Settings: endpoint: median survival time, higher = longer survival
Summary of the method: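 Mice carrying the transplanted tumor received test compound or vehicle. Survival was recorded in each group, and the value is the treated-group measurement divided by that of the vehicle-treated control group.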

[1] = dose: 100.0 mg/kg/injection, schedule: Q01DX001 (ip), vehicle: Klucel (hydroxypropylcellulose) (HPC)
[2] = dose: 200.0 mg/kg/injection, schedule: Q01DX001 (ip), vehicle: Klucel (hydroxypropylcellulose) (HPC)
[3] = dose: 400.0 mg/kg/injection, schedule: Q01DX001 (ip), vehicle: Klucel (hydroxypropylcellulose) (HPC)
[4] = dose: 50.0 mg/kg/injection, schedule: Q01DX009 (ip), vehicle: Klucel (hydroxypropylcellulose) (HPC)
[5] = dose: 200.0 mg/kg/injection, schedule: Q01DX009 (ip), vehicle: Klucel (hydroxypropylcellulose) (HPC)
[6] = dose: 60.0 mg/kg/injection, schedule: Q01DX005 (ip), vehicle: saline with Tween-80
[7] = dose: 120.0 mg/kg/injection, schedule: Q01DX005 (ip), vehicle: saline with Tween-80
[8] = dose: 240.0 mg/kg/injection, schedule: Q01DX005 (ip), vehicle: saline with Tween-80

With `CC(=O)c1ccc2c(c1)-c1ccccc1C(=O)C2=O` the T/C (dose: 25.0 mg/kg/injection, schedule: Q01DX009 (ip), vehicle: saline) was 98 % of control, the T/C (dose: 50.0 mg/kg/injection, schedule: Q01DX009 (ip), vehicle: saline) was 106 % of control and 110 % of control and the T/C (dose: 100.0 mg/kg/injection, schedule: Q01DX009 (ip), vehicle: saline) was 113 % of control and 119 % of control.

In the case of `O=C1c2cccc(Oc3ccccc3)c2C(=O)c2cccc(Oc3ccccc3)c21`, the T/C (dose: 100.0 mg/kg/injection, schedule: Q04DX003 (ip), vehicle: saline with Tween-80) is reported as 95 % of control, the T/C (dose: 200.0 mg/kg/injection, schedule: Q04DX003 (ip), vehicle: saline with Tween-80) is reported as 86 % of control and the T/C (dose: 400.0 mg/kg/injection, schedule: Q04DX003 (ip), vehicle: saline with Tween-80) is reported as 90 % of control.

In the case of `COc1cc(/C=C2\NC(=S)N(c3ccccc3)C2=O)ccc1O`, the T/C (dose: 50.0 mg/kg/injection, schedule: Q01DX005 (ip), vehicle: saline with Tween-80) is reported as 100 % of control and 109 % of control, the T/C (dose: 100.0 mg/kg/injection, schedule: Q01DX005 (ip), vehicle: saline with Tween-80) is reported as 100 % of control and 101 % of control and 86 % of control and the T/C (dose: 200.0 mg/kg/injection, schedule: Q01DX005 (ip), vehicle: saline with Tween-80) is reported as 100 % of control and 101 % of control and 86 % of control. For the same compound, the T/C (dose: 400.0 mg/kg/injection, schedule: Q01DX005 (ip), vehicle: saline with Tween-80) was 99 % of control and 100 % of control and 104 % of control.

With `CCN1C=C/C(=C/c2cc3scc(-c4ccccc4)[n+]3c3ccccc23)c2ccccc21` the T/C (dose: 0.32 mg/kg/injection, schedule: Q04DX003 (ip), vehicle: saline sonified) was 109 % of control.

In the case of `CC1=CC(=O)C(Cc2ccccc2)(c2ccc(O)cc2O)N1` (stereo unspecified), the T/C [1] is reported as 101 % of control, the T/C [2] is reported as 97 % of control and the T/C [3] is reported as 89 % of control.

For `CC(=O)CC(c1ccccc1)C(Sc1ccccc1)(Sc1ccccc1)Sc1ccccc1` (stereo unspecified), the T/C [4] was 101 % of control and the T/C [5] was 93 % of control.

In the case of `CCCCN(CCCC)/C(N)=N/O`, the T/C (dose: 20.0 mg/kg/injection, schedule: Q01DX009 (ip), vehicle: saline with Tween-80) is reported as 92 % of control, the T/C (dose: 40.0 mg/kg/injection, schedule: Q01DX009 (ip), vehicle: saline with Tween-80) is reported as 100 % of control and the T/C (dose: 80.0 mg/kg/injection, schedule: Q01DX009 (ip), vehicle: saline with Tween-80) is reported as 107 % of control.

`CC(=O)N(C)c1ccc(Nc2cc(C)[nH]c3ccc4ncnc4c23)cc1` was tested, and the T/C (dose: 5.0 mg/kg/injection, schedule: Q01DX005 (ip), vehicle: saline) was 120 % of control and 122 % of control, the T/C (dose: 6.25 mg/kg/injection, schedule: Q01DX005 (iv), vehicle: saline) was 100 % of control and the T/C (dose: 7.0 mg/kg/injection, schedule: Q01DX005 (ip), vehicle: saline) was 121 % of control and 123 % of control. For the same compound, the T/C (dose: 11.0 mg/kg/injection, schedule: Q01DX005 (ip), vehicle: saline) was 123 % of control, the T/C (dose: 12.5 mg/kg/injection, schedule: Q01DX001 (iv), vehicle: saline) was 104 % of control and the T/C (dose: 12.5 mg/kg/injection, schedule: Q01DX005 (iv), vehicle: saline) was 106 % of control. For the same compound, the T/C (dose: 12.5 mg/kg/injection, schedule: Q01DX005 (oral), vehicle: saline) was 101 % of control, the T/C (dose: 12.5 mg/kg/injection, schedule: Q01DX009 (oral), vehicle: saline) was 95 % of control and the T/C (dose: 25.0 mg/kg/injection, schedule: Q01DX001 (ip), vehicle: saline) was 110 % of control. The T/C (dose: 25.0 mg/kg/injection, schedule: Q01DX001 (iv), vehicle: saline) was 100 % of control, the T/C (dose: 25.0 mg/kg/injection, schedule: Q01DX001 (oral), vehicle: saline) was 101 % of control and the T/C (dose: 25.0 mg/kg/injection, schedule: Q01DX005 (iv), vehicle: saline) was 105 % of control. For the same compound, the T/C (dose: 25.0 mg/kg/injection, schedule: Q01DX005 (oral), vehicle: saline) was 100 % of control, the T/C (dose: 25.0 mg/kg/injection, schedule: Q01DX009 (oral), vehicle: saline) was 94 % of control and the T/C (dose: 50.0 mg/kg/injection, schedule: Q01DX001 (ip), vehicle: saline) was 123 % of control. For the same compound, the T/C (dose: 50.0 mg/kg/injection, schedule: Q01DX001 (iv), vehicle: saline) was 103 % of control, the T/C (dose: 50.0 mg/kg/injection, schedule: Q01DX001 (oral), vehicle: saline) was 99 % of control and the T/C (dose: 50.0 mg/kg/injection, schedule: Q01DX005 (ip), vehicle: saline) was 155 % of control. The T/C (dose: 50.0 mg/kg/injection, schedule: Q01DX005 (iv), vehicle: saline) was 100 % of control, the T/C (dose: 50.0 mg/kg/injection, schedule: Q01DX005 (oral), vehicle: saline) was 103 % of control and the T/C (dose: 50.0 mg/kg/injection, schedule: Q01DX009 (oral), vehicle: saline) was 103 % of control. For the same compound, the T/C (dose: 90.0 mg/kg/injection, schedule: Q04DX002 (ip), vehicle: saline) was 158 % of control, the T/C (dose: 100.0 mg/kg/injection, schedule: Q01DX001 (ip), vehicle: saline) was 157 % of control and the T/C (dose: 100.0 mg/kg/injection, schedule: Q01DX001 (iv), vehicle: saline) was 124 % of control. The T/C (dose: 100.0 mg/kg/injection, schedule: Q01DX001 (oral), vehicle: saline) was 101 % of control, the T/C (dose: 100.0 mg/kg/injection, schedule: Q01DX005 (oral), vehicle: saline) was 97 % of control and the T/C (dose: 100.0 mg/kg/injection, schedule: Q01DX009 (oral), vehicle: saline) was 104 % of control. For the same compound, the T/C (dose: 200.0 mg/kg/injection, schedule: Q01DX001 (oral), vehicle: saline) was 105 % of control, the T/C (dose: 200.0 mg/kg/injection, schedule: Q01DX005 (oral), vehicle: saline) was 103 % of control and the T/C (dose: 200.0 mg/kg/injection, schedule: Q01DX009 (oral), vehicle: saline) was 100 % of control. The T/C (dose: 300.0 mg/kg/injection, schedule: Q01DX001 (oral), vehicle: saline) was 102 % of control, the T/C (dose: 300.0 mg/kg/injection, schedule: Q01DX005 (oral), vehicle: saline) was 106 % of control and the T/C (dose: 400.0 mg/kg/injection, schedule: Q01DX001 (oral), vehicle: saline) was 106 % of control. The T/C (dose: 600.0 mg/kg/injection, schedule: Q01DX001 (oral), vehicle: saline) was 119 % of control, the T/C (dose: 600.0 mg/kg/injection, schedule: Q01DX005 (oral), vehicle: saline) was 119 % of control and the T/C (dose: 1200.0 mg/kg/injection, schedule: Q01DX001 (oral), vehicle: saline) was 119 % of control.

`Cc1c(NC(=O)CCl)c(=O)oc2c(C)c3occc(=O)c3cc12` was tested, and the T/C (dose: 30.0 mg/kg/injection, schedule: Q01DX005 (ip), vehicle: saline with Tween-80) was 100 % of control, the T/C [6] was 89 % of control and 97 % of control and the T/C [7] was 90 % of control. For the same compound, the T/C [8] was 99 % of control.

For `CCCCCCCCC(=O)C(=O)c1ccc(O)cc1O`, the T/C [4] was 113 % of control, the T/C (dose: 100.0 mg/kg/injection, schedule: Q01DX009 (ip), vehicle: Klucel (hydroxypropylcellulose) (HPC)) was 113 % of control and the T/C [5] was 113 % of control.

`NC(=O)CCSC(N)=S` was tested, and the T/C (dose: 50.0 mg/kg/injection, schedule: Q01DX005 (ip), vehicle: Klucel (hydroxypropylcellulose) (HPC)) was 100 % of control, the T/C (dose: 100.0 mg/kg/injection, schedule: Q01DX005 (ip), vehicle: Klucel (hydroxypropylcellulose) (HPC)) was 109 % of control and the T/C (dose: 200.0 mg/kg/injection, schedule: Q01DX005 (ip), vehicle: Klucel (hydroxypropylcellulose) (HPC)) was 100 % of control.

With `CC1=CC[C@@H](Br)C(C)(C)[C@]12CC[C@]1(C)O[C@@H]1C2` the T/C (dose: 12.5 mg/kg/injection, schedule: Q01DX005 (ip), vehicle: saline + alcohol) was 110 % of control, the T/C (dose: 25.0 mg/kg/injection, schedule: Q01DX005 (ip), vehicle: saline + alcohol) was 110 % of control and the T/C (dose: 50.0 mg/kg/injection, schedule: Q01DX005 (ip), vehicle: saline + alcohol) was 105 % of control. The T/C (dose: 100.0 mg/kg/injection, schedule: Q01DX005 (ip), vehicle: saline + alcohol) was 105 % of control.

For `CCOC(=O)c1c2c(c[nH]c1=O)CCCC2`, the T/C (dose: 100.0 mg/kg/injection, schedule: Q01DX001 (ip), vehicle: saline with Tween-80) was 106 % of control and the T/C (dose: 200.0 mg/kg/injection, schedule: Q01DX001 (ip), vehicle: saline with Tween-80) was 97 % of control.

`O=C1/C(=C/c2ccc(O)c(O)c2)Cc2ccccc21` was tested, and the T/C (dose: 25.0 mg/kg/injection, schedule: Q01DX009 (ip), vehicle: saline with Tween-80) was 102 % of control, the T/C (dose: 50.0 mg/kg/injection, schedule: Q01DX009 (ip), vehicle: saline with Tween-80) was 103 % of control and the T/C (dose: 100.0 mg/kg/injection, schedule: Q01DX009 (ip), vehicle: saline with Tween-80) was 105 % of control. For the same compound, the T/C (dose: 200.0 mg/kg/injection, schedule: Q01DX009 (ip), vehicle: saline with Tween-80) was 103 % of control.

`O=P(OCCCl)(OCCCl)C(Nc1cccc2ccccc12)c1ccc(N(CCCl)CCCl)cc1` (stereo unspecified) was tested, and the T/C [6] was 98 % of control, the T/C [7] was 95 % of control and the T/C [8] was 99 % of control.

With `O=C1CSc2c(ccc3c4c([nH]c23)C(=O)CCC4)N1` the T/C [1] was 99 % of control, the T/C [2] was 90 % of control and the T/C [3] was 97 % of control.
